{"source": "patent US20260306464A1", "about": "“LINAPRAZAN GLURATE FOR TREATING GASTROESOPHAGEAL REFLUX DISEASE (GERD)” (Cinclus Pharma Holding AB (publ), priority 2023, published 2026)", "key": {"[1]": {"assay": "Plasma pharmacokinetics / metabolism of linaprazan glurate", "assay_type": "in vivo"}, "[2]": {"assay": "LEED study: endoscopic healing of erosive esophagitis / LA grade improvement after 4 weeks", "assay_type": "in vivo, human", "excerpt": "The severity of esophagitis is typically indicated using the Los Angeles (LA) classification of reflux esophagitis, which is based on an endoscopic assessment of the patient. The LA grade scoring system divides reflux esophagitis into four categories (LA grade A to D) based on the extent of esophageal mucosal breaks. […] LA grade C esophagitis is defined as one or more mucosal breaks that are continuous between the tops of two mucosal folds, but which involves less than 75% of the esophageal circumference. The most severe form, LA grade D esophagitis, is defined as one or more mucosal breaks involving at least 75% of the esophageal circumference (Lundell et al., Gut 1999, vol. 45, p. 172-180).\nAs used herein, the terms “improvement of the LA grade” and “LA grade improvement” refer to one or more steps from one LA grade to a lower LA grade (such as from grade D to grade C, B or A) or to being healed. In some embodiments, the improvement of the LA grade is 1 step. In some embodiments, the improvement of the LA grade is 2 steps. In some embodiments, the improvement of the LA grade is 3 steps. In some embodiments, the improvement of the LA grade is 4 steps.\nThe study included patients with erosive esophagitis (eGERD). Patients were divided into two cohorts, one with patients having moderate to severe eGERD (LA grade C/D) and one with patients having milder eGERD (LA grade A/B) with a history of only partial response to PPI-treatment. The primary endpoint of the study was to support dose selection of linaprazan glurate for the phase III program in eGERD, through central assessment of healing of erosive esophagitis after four weeks of treatment. The sample size, i.e., the number of patients needed, for measuring dose related efficacy was based on the patient cohort with moderate to severe eGERD. After initial endoscopy and other screening procedures, 248 patients were randomized equally into one of five treatment groups, receiving either four weeks treatment with linaprazan glurate in four dose levels, or four weeks lansoprazole in the approved standard eGERD healing dose. Thereafter, an endoscopic evaluation of healing was performed, where healing was defined as no presence of esophageal erosions, i.e., no erosive damage to the esophageal mucosa. After the endoscopic evaluation, all patient groups received lansoprazole for four weeks in a maintenance phase. A retrospective central review of the endoscopy findings was performed, and 162 patients were available for evaluation of the primary endpoint. All enrolled 248 patients were included in the safety analysis.\nThe study was a randomized, double-blind, active comparator-controlled study with a parallel group design including four arms with linaprazan glurate and one arm with lansoprazole. Pharmacokinetic (PK) blood sampling pre-dose, close before the first and the second dose administration was performed at Day 7, Day 14 and Day 28 visits days in all patients. 248 patients with erosive esophagitis due to GERD LA grade C or D and patients with erosive esophagitis due to GERD LA grade A or B with at least partial symptom response but still endoscopically unhealed after 8 weeks history of standard treatment healing course with PPI, were randomized.\nRandomization to one of the treatments with linaprazan glurate 25 mg, 50 mg, 75 mg, 100 mg twice daily (BID), or lansoprazole 30 mg once daily (QD) was based on a 1:1:1:1:1 scheme. One site could not enroll more than about 20% of the overall number of patients (48 patients per site).\nThe duration of each patient's participation in the study, including screening, blind treatment period and open-label treatment period, was approximately 60 days. The patients were randomized for 4 weeks (28 days, −2/+5 days) of double-blind treatment and were provided with IMP for 35 days (including one additional blister pack dispensed at Visit 2/Day 0) to allow for treatment up to the visit window. […]"}, "intragastric pH": {"system": "intragastric pH", "assay": "Phase I: plasma concentration of linaprazan vs. intragastric pH", "assay_type": "in vivo, human", "conditions": "Phase I studies", "excerpt": "The plasma concentration of linaprazan glurate is only very low and difficult to determine, but the plasma concentration of linaprazan may be determined instead."}, "[3]": {"system": "gastric hydrogen potassium pump (H+/K+ ATPase)", "conditions": "healthy subjects; cited from earlier work"}, "[4]": {"conditions": "background statement; cited from earlier work"}, "[5]": {"assay": "LEED study: safety and tolerability (adverse events)", "conditions": "for COVID-19 (%) / COVID-19 events / Constipation (%) / Constipation events / Headache (%) / Headache events / Nausea (%) / Nausea events: TEAE"}, "[6]": {"conditions": "LA grade C/D, LG 100 mg BID, 4 weeks"}}}
{"molecule": "Cc1cccc(C)c1CNc1cc(C(=O)NCCOC(=O)CCCC(=O)O)cn2c(C)c(C)nc12", "note": "[linaprazan glurate, 5-{2-[({8-[(2,6-dimethylbenzyl)amino]-2,3-dimethylimidazo[1,2-a]pyridine-6-yl}carbonyl)-amino]ethoxy}-5-oxopentanoic acid]", "values": [{"measurement": "plasma concentration of linaprazan glurate", "setting": "[1]; following absorption", "value": "very low"}, {"measurement": "metabolism into linaprazan", "setting": "[1]; following absorption into the blood stream", "value": "quickly metabolized into linaprazan"}, {"measurement": "healing rate vs lansoprazole", "setting": "[2]; 4-week treatment vs 30 mg/day lansoprazole", "value": "significantly higher healing rates"}, {"measurement": "dose response in the healing rates", "setting": "[2]; 4 weeks, LG 25-100 mg BID", "value": "clear dose response"}, {"measurement": "healing rate of eGERD", "setting": "[2]; 25, 50, 75 or 100 mg twice daily for 4 weeks", "value": "high healing rates"}, {"measurement": "highest four-week healing rate in a linaprazan glurate dosing group", "setting": "[2]; LA grade A/B, 4 weeks, BID", "value": 91, "unit": "%"}, {"measurement": "mean healing rate, all patients treated with linaprazan glurate", "setting": "[2]; LA grade A/B/C/D, 4 weeks, all LG doses, FIG. 8", "value": 80, "unit": "%"}, {"measurement": "highest mean LA grade improvement in a linaprazan glurate dosing group", "setting": "[2]; LA grade C/D, 4 weeks, BID, FIG. 5", "value": 3.1}, {"measurement": "LA grade improvement of all LG-treated patients vs lansoprazole", "setting": "[2]; LA grade C/D, 4 weeks, all LG doses", "value": "higher than lansoprazole"}, {"measurement": "highest four-week healing rate in a linaprazan glurate dosing group", "setting": "[2]; LA grade C/D, 4 weeks, FIG. 6 (all LG dose group), FIG. 7 (LG 75 mg dose group)", "value": 89, "unit": "%"}, {"measurement": "patients whose 4-week LA grade was A", "setting": "[2]; [6]", "value": "6 out of 7"}, {"measurement": "response in the 100 mg dose group", "setting": "[2]; [6]", "value": "lower than expected"}, {"measurement": "healing rate of all LG-treated patients vs lansoprazole", "setting": "[2]; LA grade C/D, post-hoc analysis, Fisher's exact test", "value": "significantly higher than lansoprazole"}, {"measurement": "mean harmonic p-value, healing rate LG vs lansoprazole", "setting": "[2]; LA grade C/D, post-hoc, Fisher's exact test", "value": 0.0404}, {"measurement": "pH control", "setting": "intragastric pH", "value": "dose dependent"}, {"measurement": "intragastric pH two hours after the first dose", "setting": "[3]", "value": "Neutral intragastric pH"}, {"measurement": "plasma half-life", "setting": "[4]", "value": "approximately 10 hours"}, {"measurement": "safety data vs lansoprazole", "setting": "[5]; LG 25-100 mg BID", "value": "comparable to that of lansoprazole"}, {"measurement": "tolerability", "setting": "[5]; LG 25-100 mg BID", "value": "generally well tolerated"}, {"measurement": "COVID-19 (%)", "setting": "[5]; LG 25 mg BID", "value": 2.0, "unit": "%"}, {"measurement": "COVID-19 events", "setting": "[5]; LG 25 mg BID", "value": 1, "unit": "events"}, {"measurement": "Constipation (%)", "setting": "[5]; LG 25 mg BID", "value": 3.9, "unit": "%"}, {"measurement": "Constipation events", "setting": "[5]; LG 25 mg BID", "value": 2, "unit": "events"}, {"measurement": "Headache (%)", "setting": "[5]; LG 25 mg BID", "value": 2.0, "unit": "%"}, {"measurement": "Headache events", "setting": "[5]; LG 25 mg BID", "value": 1, "unit": "events"}, {"measurement": "Nausea (%)", "setting": "[5]; LG 25 mg BID", "value": 2.0, "unit": "%"}, {"measurement": "Nausea events", "setting": "[5]; LG 25 mg BID", "value": 1, "unit": "events"}, {"measurement": "COVID-19 (%)", "setting": "[5]; LG 50 mg BID", "value": 4.2, "unit": "%"}, {"measurement": "COVID-19 events", "setting": "[5]; LG 50 mg BID", "value": 2, "unit": "events"}, {"measurement": "Constipation (%)", "setting": "[5]; LG 50 mg BID", "value": 2.1, "unit": "%"}, {"measurement": "Constipation events", "setting": "[5]; LG 50 mg BID", "value": 1, "unit": "events"}, {"measurement": "Headache (%)", "setting": "[5]; LG 50 mg BID", "value": 6.3, "unit": "%"}, {"measurement": "Headache events", "setting": "[5]; LG 50 mg BID", "value": 3, "unit": "events"}, {"measurement": "Nausea (%)", "setting": "[5]; LG 50 mg BID", "value": 0.0, "unit": "%"}, {"measurement": "Nausea events", "setting": "[5]; LG 50 mg BID", "value": 0, "unit": "events"}, {"measurement": "COVID-19 (%)", "setting": "[5]; LG 75 mg BID", "value": 1.9, "unit": "%"}, {"measurement": "COVID-19 events", "setting": "[5]; LG 75 mg BID", "value": 1, "unit": "events"}, {"measurement": "Constipation (%)", "setting": "[5]; LG 75 mg BID", "value": 3.8, "unit": "%"}, {"measurement": "Constipation events", "setting": "[5]; LG 75 mg BID", "value": 2, "unit": "events"}, {"measurement": "Headache (%)", "setting": "[5]; LG 75 mg BID", "value": 1.9, "unit": "%"}, {"measurement": "Headache events", "setting": "[5]; LG 75 mg BID", "value": 1, "unit": "events"}, {"measurement": "Nausea (%)", "setting": "[5]; LG 75 mg BID", "value": 0.0, "unit": "%"}, {"measurement": "Nausea events", "setting": "[5]; LG 75 mg BID", "value": 0, "unit": "events"}, {"measurement": "COVID-19 (%)", "setting": "[5]; LG 100 mg BID", "value": 8.5, "unit": "%"}, {"measurement": "COVID-19 events", "setting": "[5]; LG 100 mg BID", "value": 4, "unit": "events"}, {"measurement": "Constipation (%)", "setting": "[5]; LG 100 mg BID", "value": 0.0, "unit": "%"}, {"measurement": "Constipation events", "setting": "[5]; LG 100 mg BID", "value": 0, "unit": "events"}, {"measurement": "Headache (%)", "setting": "[5]; LG 100 mg BID", "value": 2.1, "unit": "%"}, {"measurement": "Headache events", "setting": "[5]; LG 100 mg BID", "value": 1, "unit": "events"}, {"measurement": "Nausea (%)", "setting": "[5]; LG 100 mg BID", "value": 0.0, "unit": "%"}, {"measurement": "Nausea events", "setting": "[5]; LG 100 mg BID", "value": 0, "unit": "events"}]}
